Measured values published in patent EP3875590A1, “METHOD FOR PRODUCING ORGANIC COMPOUND AND CORYNEFORM BACTERIUM” (Green Earth Institute Co., Ltd., priority 2018, dated 2020).

What was measured:
[1] = system: leucine dehydrogenase; assay: enzyme kinetics (Michaelis-Menten) of the reductive amination reaction of HOB with purified leucine dehydrogenase; type: biochemical, Lysinibacillus sphaericus; conditions: 100 mM HEPES/KOH (pH 7.5), 200 mM ammonium chloride, 0.2 mM NADH, 3.7 µg/mL leucine dehydrogenase
Protocol: The solution in which the bacterial cells were crushed and which was obtained in 4-6-(1) was subjected to a filtration treatment using a syringe filter with a pore size of 0.2 µm (manufactured by Sartorius AG). Fractionation was performed using an AKTA purifier system (manufactured by GE Healthcare) to which a HisTrap™ FF 1 mL column was connected, and using 50 mM sodium phosphate buffer (pH 8.0), 500 mM sodium chloride, and 10% glycerol as adsorption buffers, and 50 mM sodium phosphate buffer (pH 8.0), 500 mM sodium chloride, 10% glycerol, and 500 mM imidazole as elution buffers. Fractions containing leucine dehydrogenase identified by SDS-PAGE were recovered and concentrated using ultrafiltration. […]
Using the purified leucine dehydrogenase thus obtained, analysis of enzyme kinetics based on the Michaelis-Menten formula using HOB as a substrate was performed. As reaction conditions, 100 mM HEPES/KOH (pH 7.5), 200 mM ammonium chloride, 0.2 mM NADH, and 3.7 µg/mL leucine dehydrogenase were used, and a reaction rate at which a concentration of HOB was 3.13, 6.25, 12.5, 25.0, 50.0, and 100 mM was measured. A reaction rate was calculated by measuring a continuous decrease in absorption by NADH at 340 nm using a Varioskan LUX (manufactured by Thermo Fisher Scientific Inc.). […]

[2] = molecular target: T1, phenylalanine dehydrogenase (Pseudobacillus badius, UniProt Q59224); assay: oxidative deamination reaction activity against L-homoserine, crushed-cell solution expressing phenylalanine dehydrogenase; type: biochemical, Bacillus badius; conditions: crushed cells of GES1136 (E. coli BL21 (DE3), pGE1237); same conditions as 4-6-(1): pH 10.0, 2.5 mM NAD^+, 50 mM L-homoserine
T1 construct: His-tag (pET-15b vector-encoded, with thrombin site); made in house; host or cells: E. coli BL21 (DE3), strain GES1136, plasmid pGE1237 (pET-15b)
T1 sequence (Q59224 whole entry): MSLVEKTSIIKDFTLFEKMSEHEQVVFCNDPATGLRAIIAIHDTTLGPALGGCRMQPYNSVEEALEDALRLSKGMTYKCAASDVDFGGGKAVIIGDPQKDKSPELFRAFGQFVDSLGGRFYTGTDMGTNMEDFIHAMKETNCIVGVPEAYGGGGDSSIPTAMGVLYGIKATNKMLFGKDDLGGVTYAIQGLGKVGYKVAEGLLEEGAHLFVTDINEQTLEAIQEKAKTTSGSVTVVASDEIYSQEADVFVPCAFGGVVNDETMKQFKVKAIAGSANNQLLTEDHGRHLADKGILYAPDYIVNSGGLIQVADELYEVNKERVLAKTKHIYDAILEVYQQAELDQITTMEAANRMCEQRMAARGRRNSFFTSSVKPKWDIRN
Protocol: (§1) Using this solution in which the bacterial cells were crushed, an oxidative deamination reaction activity against L-homoserine was measured. As the reaction conditions, an appropriately diluted solution in which the bacterial cells were crushed was mixed with 100 mM glycine-KCl-KOH (pH 10.0), 2.5 mM NAD^+, and 50 mM L-homoserine, and a continuous increase in absorption by NADH at 340 nm was measured using a Varioskan LUX (manufactured by Thermo Fisher Scientific Inc.). As a result, a specific activity of this solution in which the bacterial cells were crushed against L-homoserine was 0.21 U/mg of protein.
(§2) Transformation was performed using pGE1237 and using ECOSTM Competent E. coli BL21 (DE3) (manufactured by NIPPON GENE CO., LTD.) according to its instructions, and the obtained strain was designated as GES 1136. When a protein concentration in a solution, in which the cells were crushed and which was obtained by subj ecting GES1136 to the same operation as that of GES 1007, was measured, it was 11 mg/mL.
(§3) As a result of measuring an oxidative deamination reaction activity against L-homoserine in the same manner as in 4-6-(1) using this solution in which the bacterial cells were crushed, a specific activity of this solution in which the bacterial cells were crushed against L-homoserine was 0.045 U/mg of protein.

[3] = molecular target: T2, valine dehydrogenase (Streptomyces fradiae, UniProt P40176); assay: oxidative deamination reaction activity against L-homoserine, crushed-cell solution expressing valine dehydrogenase; type: biochemical; conditions: crushed cells of GES1057 (E. coli BL21 (DE3), pGE1175); same conditions as 4-6-(1): pH 10.0, 2.5 mM NAD^+, 50 mM L-homoserine
T2 construct: His-tag (pET-15b vector-encoded, with thrombin site); made in house; host or cells: E. coli BL21 (DE3), strain GES1057, plasmid pGE1175 (pET-15b)
T2 sequence (P40176 whole entry): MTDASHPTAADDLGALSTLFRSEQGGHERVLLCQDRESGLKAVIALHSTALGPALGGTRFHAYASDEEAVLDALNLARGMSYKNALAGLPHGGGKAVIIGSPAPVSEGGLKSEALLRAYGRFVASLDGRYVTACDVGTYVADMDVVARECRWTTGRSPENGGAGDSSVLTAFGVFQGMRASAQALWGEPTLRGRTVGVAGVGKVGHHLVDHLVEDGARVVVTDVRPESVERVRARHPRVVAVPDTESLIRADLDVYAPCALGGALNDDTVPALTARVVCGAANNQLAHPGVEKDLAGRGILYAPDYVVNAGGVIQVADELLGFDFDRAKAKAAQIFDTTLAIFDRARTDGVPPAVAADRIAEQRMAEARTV
Protocol: as §1
as §2, with “pGE1175” for “pGE1237”, “1057.” for “1136.”, “subjecting GES1057” for “subj ecting GES1136”, “4.2” for “11”
as §3, with “0.21” for “0.045”

[4] = system: leucine dehydrogenase; assay: oxidative deamination reaction activity against L-homoserine, crushed-cell solution expressing leucine dehydrogenase; type: biochemical, Lysinibacillus sphaericus; conditions: crushed cells of GES1007 (E. coli BL21 (DE3), pGE1148); 100 mM glycine-KCl-KOH (pH 10.0), 2.5 mM NAD^+, 50 mM L-homoserine; NADH absorption at 340 nm
Protocol: Transformation was performed using pGE1148 and using ECOSTM Competent E. coli BL21 (DE3) (manufactured by NIPPON GENE CO., LTD.) according to its instructions, and the obtained strain was designated as GES1007. GES1007 was inoculated into an LB agar medium containing 100 µg/mL of ampicillin under aseptic conditions, and culture was performed at 37°C. Bacterial cells grown on the agar medium were inoculated into 10 mL of an LB medium containing 100 µg/mL of ampicillin, and shaking culture was performed at 37°C to prepare a seed culture solution. This seed culture solution was inoculated into 100 mL of an LB medium containing 100 µg/mL of ampicillin and prepared in a 500 mL flask so that a turbidity was 0.1. Shaking was performed at 37°C, and culture was performed until a turbidity was 0.7. […] When a protein concentration in this solution in which the cells were crushed was measured, it was 12 mg/mL.
as §1, with “As a result, a specific activity of this solution in which the bacterial cells were crushed against L-homoserine was 0.21 U/mg of protein.” left out

SMILES	Km ([1]; HOB 3.13-100 mM, read-out: Michaelis constant KM for HOB) [mM]	catalyst rotation speed kcat ([1]; HOB as a substrate) [s⁻¹]	specific activity of this solution in which the bacterial cells were crushed against L-homoserine [2]	specific activity of this solution in which the bacterial cells were crushed against L-homoserine [3]	specific activity of this solution in which the bacterial cells were crushed against L-homoserine [4]
O=C(O)C(=O)CCO [HOB, 4-hydroxy-2-oxobutyric acid]	7.7	2.7	–	–	–
N[C@@H](CCO)C(=O)O [L-homoserine]	–	–	0.045 U/mg of protein	0.21 U/mg of protein	0.21 U/mg of protein
